Measurements: patent US11246961B2, “Engineered scaffolds for vascularized tissue repair” (The Regents of the University of California, priority 2016, dated 2022)

Tests used:
HCAECs [1] = experiment: flow cytometry ligand-cell binding, HCAECs; parameters: species or system human; settings: biotinylated ligand 1 μM, streptavidin-phycoerythrin
Procedure: (§1) FIG. 10 presents flow cytometry data from an assay of binding affinity of LXW7 and GRGD (SEQ ID NO: 1) to different cell types. Tests included EPCs/ECs from different sources, including HECFCs (A), HCAECs (B), HMVECs (C), and THP-1 monocytes (D), Platelets (E), as well as K562 cells engineered to highly express αvβ3 (αvβ3-K562, F), and αIIbβ3 (αIIbβ3-K562, G). Cells were incubated with the LXW7-bio, GRGD-bio (SEQ ID NO: 1), or D-Biotin peptide and subsequently incubated with streptavidin-phycoerythrin. Flow cytometry analysis was performed to determine the binding affinity of the ligands. Samples treated with D-biotin were used as negative controls.
(§2) LXW7-bio (1 μM) was incubated with 3×10^5 HECFCs, HCAECs, HMVECs, αvβ3-K562 and αIIbβ3-K562 cells and THP-1 monocytes and 1×10^8 platelets in binding buffer (HEPES containing 10% FBS) on ice for 30 minutes. The samples were washed three times with DPBS containing 1% FBS and incubated with 2 μg/ml of streptavidin-phycoerythrin on ice for 30 minutes and then washed with DPBS. Samples were analyzed on a BD Fortessa LSR Cell Analyzer and further data analysis and gating were performed using FlowJo software (Treestar, Inc.).

HECFCs = experiment: flow cytometry ligand-cell binding, HECFCs; parameters: species or system human; settings: biotinylated ligand 1 μM, streptavidin-phycoerythrin
Procedure: as §1, §2

HMVECs = experiment: flow cytometry ligand-cell binding, HMVECs; parameters: species or system human; settings: biotinylated ligand 1 μM, streptavidin-phycoerythrin
Procedure: as §1, §2

platelets = platelets attachment assay on ligand treated culture surfaces; type: cell-based; settings: 16 hours
Text: (§3) Ligands LXW7, LXY30, and LLP2A were synthesized as in U.S. Pat. No. 9,073,974. Biotinylated LXW7 (LXW7-bio) and biotinylated GRGD (GRGD-bio) (SEQ ID NO: 1) were synthesized using established solid phase peptide synthesis protocols (Xiao et al. (2010) Mol Cancer Therapeutics 9:2714). Peptide-bio was designed to have biotin attached to the side chain of Lys, with two hydrophilic linkers between peptide and Lys (biotin). To modify culture surface with ligands, target culture wells in a 24-well plate were coated with 500 μL of 20 μg/mL Avidin (Thermo Fisher Scientific), and incubated for 1 hour at 37° C. Avidin coated wells were rinsed three times with DPBS and were treated with 500 μL molar equivalents (2 μM) of D-biotin (Thermo Fisher Scientific), LXW7-bio, or GRGD-bio (SEQ ID NO: 1). After 1 hour, the wells were washed three times with DPBS and blocked with 1% bovine serum albumin (BSA; Thermo Fisher Scientific) for 1 hour. After the wells were rinsed three times with DPBS, for cell attachment assay, 5×10^4 HCAECs and THP-1 monocytes suspended in the respective maintenance medium were added to the wells and incubated for 10 minutes or 16 hours at 37° C., 5% CO2, respectively. […] Five images were randomly taken from each sample and quantification of images was performed using the Image J software (NIH).

integrin αIIbβ3 = biological target: T1, integrin αIIbβ3 (Homo sapiens, UniProt P05106+P08514); experiment: flow cytometry ligand-cell binding, αIIbβ3-K562 cells; settings: K562 cells highly expressing αIIbβ3
T1 construct: expressed in transfected cells; host or cells: K562 myeloid leukemia cells (αIIbβ3-K562), provided by Dr. Jennifer Cochran (Stanford University)
Procedure: as §1
Human coronary artery endothelial cells (HCAECs) were purchased from ATCC. Human cardiac microvascular endothelial cells (HMVECs) were purchased from Lonza. THP-1 monocytes were obtained from Dr. Pamela Lein (University of California, Davis). […]
as §2, with “The samples were washed three times with DPBS containing 1% FBS and incubated with 2 μg/ml of streptavidin-phycoerythrin on ice for 30 minutes and then washed with DPBS.” left out

ERK1/2 = experiment: Western-blot analysis, phosphorylation of ERK1/2; type: cell-based, human; settings: LXW7 treated surface, 96 hours, vs D-biotin
Procedure: The 100-mm dishes from Example 2 were treated with Avidin followed by LXW7-bio or D-biotin as described in Example 5. 8×10^5 HCAECs were seeded per dish and cultured in EGM-2 media for 4 days. Cells were lysed using Extraction Kit (Thermo Fisher Scientific) and protein concentrations were determined using BCA Protein Assay (Thermo Fisher Scientific). Fifteen μg of each sample were loaded and separated using a 4-12% Bis-Tris NuPAGE gel (Thermo Fisher Scientific) and transferred to a nitrocellulose membrane. The membrane was blocked in 5% BSA in TBST (Tris-buffered saline with 0.5% Tween-20), and subsequently incubated with primary antibodies anti-VEGF Receptor 2, anti-Phospho-VEGF Receptor 2, anti-p44/42 MAPK (Erk1/2) and anti-Phospho-p44/42 MAPK (Erk1/2) (Thr202/Tyr204), all purchased from Cell Signaling Technologies, in 1% BSA overnight at 4° C. After washing three times with TBST, the membranes were incubated with respective horseradish peroxidase-conjugated secondary antibodies in 1% non-fat dry milk in TBST (BioRad) for 1 hour at room temperature. After washing, the protein bands were visualized using West Dura Substrate (Thermo Fisher Scientific) and quantified using Image J software.

HCAECs [2] = experiment: attachment assay on ligand treated culture surfaces, HCAECs; type: cell-based, human; settings: 10 minutes
Text: as §3, with “respectively. After each time point the wells were washed three times with DPBS, and the adhered cells were fixed in 10% formalin (Azer Scientific) for 20 minutes. For platelets attachment assay, the PRP was centrifuged, and the platelet pellet was resuspended in 1% BSA with 2 mM CaCl2 and 1 mM MgCl2 to achieve a final concentration of 1×10^8 platelets/mL, added to the wells at a density of 5×10^7 platelets/cm^2, and incubated for 16 hours at 37° C., 5% CO2. The wells were washed three times with DPBS, and the adhered cells were fixed in 10% formalin for 20 min. The HCAECs wells were washed with DPBS again and blocked for 1 hour with 1% BSA. An additional wash was performed, and the plate was incubated overnight with mouse anti-PECAM-1 antibody (1:100; Abcam) in 1% BSA at 4° C.” for “respectively.”

VEGFR-2 = experiment: mRNA level of VEGFR-2 on EPCs; type: cell-based; settings: EPCs treated with LXW7
Procedure: (§4) FIG. 15 presents graphs of mRNA levels of VEGFR-2 (A) and EGFR (B) on EPCs after treating with different concentrations of LXW7 for 48 h. *P<0.05 vs. Control, #P<0.05 vs. 25 nM (n=10 per group).

EGFR = experiment: mRNA level of EGFR on EPCs; type: cell-based; settings: EPCs treated with LXW7
Procedure: as §4

cGRGDdvc [LXW7] was tested, and the “binding affinity to HCAECs by flow cytometry” value (HCAECs [1]) was “higher binding affinity with different types of EPCs/ECs than conventional GRGD peptide”, the “binding affinity to HECFCs by flow cytometry” value (HECFCs) was “higher binding affinity with different types of EPCs/ECs than conventional GRGD peptide” and the “binding affinity to HMVECs by flow cytometry” value (HMVECs) was “higher binding affinity with different types of EPCs/ECs than conventional GRGD peptide”. For the same substance, the “platelet adhesion on ligand treated surface” value (platelets) was “limited platelet adhesion”, the “binding to αIIbβ3-K562 cells by flow cytometry” value (integrin αIIbβ3) was “very low binding” and the “phosphorylation of ERK1/2 in ECs” value (ERK1/2) was “significantly increased”. The “attachment of HCAECs on ligand treated surface” value (HCAECs [2]; avidin + biotinylated ligand 2 μM) was “bound to both LXW7 and GRGD”, the “number of attached HCAECs, LXW7 vs GRGD surface” value (HCAECs [2]; quantified) was “attracted more HCAECs than the GRGD-modified” and the “VEGFR2 mRNA level” value (VEGFR-2) was “increases in VEGFR2 and EGFR mRNA levels were found to be dependent on treatment time”. For the same substance, the “EGFR mRNA level” value (EGFR) was “increases in VEGFR2 and EGFR mRNA levels were found to be dependent on treatment time”.
